Target: Glycogen synthase kinase-3 beta splice variant X1 (Bos taurus, UniProt A0A059UE90)
Test: Inhibition Assay: A mixture containing 100 mM MES-sodium hydroxide (pH 6.5), 1 mM magnesium acetate, 0.5 mM EGTA, 5 mM, β-mercaptoethanol, 0.02% Tween 20, 10% glycerol, 12 µg/ml P-GS1, 41.7 µM [γ-^32P] ATP (68 kBq/ml), bovine cerebral TPK1 and a compound shown in Table (a final mixture contained 1.7% DMSO deriving from a solution of a test compound prepared in the presence of 10% DMSO) was used as a reaction system. The phosphorylation was started by adding ATP, and the reaction was conducted at 25° C. for 2 hours, and then stopped by adding 21% perchloric acid on ice cooling. The reaction mixture was centrifuged at 12,000 rpm for 5 minutes and adsorbed on P81 paper (Whatmann), and then the paper was washed four times with 75 mM phosphoric acid, three times with water and once with acetone. The paper was dried, and the residual radioactivity was measured using a liquid scintillation counter.

| IC50 | Compound |
| --- | --- |
| 108 nM | Cn1c(OCC(=O)c2ccc(Br)cc2)nc(-c2ccncn2)cc1=O |
| 167 nM | Cn1c(OCC(=O)c2ccc(Br)cc2)nc(-c2ccncc2)cc1=O |
| 20 nM | Cn1c(OCC(=O)c2ccccc2)nc(-c2ccncn2)cc1=O |
| 27 nM | Cn1c(OCC(=O)c2ccc(Br)cc2)nc(-c2ccncc2F)cc1=O |
